Like-named read-outs stand apart in the source and are kept apart here.
Experiments:
[1] = test system: Intracellular L. amazonensis; test: Efficacy against intracellular L. amazonensis amastigotes; assay type: cell-based; conditions: Leishmania amazonensis
Excerpt: (§1) Methods employed for the evaluation of the efficacy of mono-AIA target compounds against intracellular L. amazonensis[14] and intracellular L. donovani[15] and for toxicity to murine J774 macrophages[16] have been described previously. […] For ease in illustrating the antileishmanial SAR of this series of compounds, the central phenyl ring, the linker, and the terminal phenyl ring are referred to as rings A, B, and C, respectively (Fig. 1).

[2] = test system: Intracellular L. donovani; test: Efficacy against intracellular L. donovani amastigotes; assay type: cell-based; conditions: Leishmania donovani; means ± standard errors of at least three independent experiments
Excerpt: as §1

J774 macrophages = test: Toxicity to murine J774 macrophages (host cell counterscreen); assay type: cell-based; conditions: for IC50: Mus musculus; for selectivity index for intracellular Leishmania compared to J774 murine macrophages: IC50 vs J774 macrophages/IC50 vs Leishmania
Excerpt: For ease in illustrating the antileishmanial SAR of this series of compounds, the central phenyl ring, the linker, and the terminal phenyl ring are referred to as rings A, B, and C, respectively (Fig. 1).

healthy BALB/c mice = test: In vivo toxicity assessment in healthy BALB/c mice; conditions: i.p. 30 mg/kg/day for 5 days, dissolved in water
Description: (§2) Compounds 1b, 1d, and 1k were dissolved in water and administered to healthy BALB/c mice for assessment of their in vivo toxicity. […] Animals were infected with L. donovani LV82 promastigotes and then treated with different compounds one week post infection for five consecutive days. These mice were euthanized two weeks post infection and liver smear slides were prepared for the microscopic determination of parasitemia.

L. donovani LV82 = test: Murine model of visceral leishmaniasis (liver parasitemia); assay type: in vivo; conditions: L. donovani-infected mice; for suppression (inhibition) of liver parasitemia: i.p. 30 mg/kg/day for 5 days, vs untreated control
Description: as §2
Compounds were administered i.p. (A and B) or p.o. (C) once daily for 5 days to infected mice. Results are presented as the percentage inhibition of liver parasitemia. Bars and error bars show the mean and standard deviation, respectively (n = 4) ^*p < 0.01, compared to untreated control, ^#p < 0.05, compared to untreated control.

[3] = Plasma and tissue concentrations after a single oral dose; assay type: in vivo; conditions: mouse, mice; for concentration at 24 h: 24 h after single oral dose 100 μmol/kg (40 mg/kg); for concentration at 1 h: 1 h after single oral dose 100 μmol/kg (40 mg/kg)
Description: To confirm the exposure and accumulation of 1b in target organs after oral administration, plasma and tissue concentrations of this compound were determined at 1, 2 and 24 h after a single oral dose at 100 μmol/kg (or 40 mg/kg) in mice. Compound 1b accumulated in the target organs such as liver and spleen at higher concentrations (C1h = 12.6 and 4.7 μM, respectively) than in the plasma (C1h = 1.9 μM) (Fig. 3). At 24 h post dose, 1b concentrations decreased substantially to 0.14 μM in the plasma and 0.6–0.7 μM in the liver and spleen.
Figure 3 Concentration of 1b in liver ( [drawing 15] ), spleen ( [drawing 16] ), kidney ( [drawing 17] ), and plasma ( [drawing 18] ) after oral administration at a dose of 100 μmol/kg (or 40 mg/kg) to mice. Bars and error bars represent means and standard errors of triplicate determinations, respectively.

[4] = test system: intracellular L. amazonensis amastigotes; test: Combination study of 1b and posaconazole against intracellular L. amazonensis amastigotes; assay type: cell-based; conditions: Leishmania amazonensis; combination experiment, absence of posaconazole; read-out: IC50 of 1b alone
Excerpt: Our efforts to explore the mechanism of antileishmanial action of the bis-AIAs led to the observation that DB766 is synergistic with posaconazole against Leishmania donovani in vitro[17]; other investigators reported in vitro antileishmanial synergy between posaconazole and the squalene synthase inhibitor E5700.[18] A combination study with 1b and posaconazole was thus performed against intracellular L. amazonensis amastigotes. […] Instead, the method described by Peters et al.[23] was employed to determine whether posaconazole enhances the potency of 1b. […] Although both assays involved incubating infected murine peritoneal macrophages with posaconazole for 72 h, de Macedo-Silva exposed peritoneal macrophages to L. amazonensis for a shorter time compared to our studies prior to removing extracellular parasites (2 h vs overnight). […] Thus, a likely explanation for the discrepancy between IC50 values for posaconazole against intracellular L. amazonensis in the two studies is the differences in assay conditions employed.
Figure 4 In vitro interactions between 1b and posaconazole against intracellular L. amazonensis. Results are presented as the IC50 of 1b alone and in different combinations. Bars and error bars show the mean and standard deviation of three independent experiments.

[5] = means ± standard errors of at least three independent experiments, values marked b: means ± range of two experiments, read-out: IC50 Intracellular L. amazonensis
[6] = murine J774 macrophages, means ± standard errors of at least three independent experiments, read-out: IC50 J774 macrophages

## CC(C)Oc1cc(NC(=N)c2ncccn2)ccc1-c1ccc(-c2ccccc2)o1 [Compound 1p]
[1]; [5]
  IC50: 650 ± 160 nM
[2]
  IC50: 440 ± 60 nM
J774 macrophages; [6]
  IC50: 12 µM

## CC(C)Oc1cc(NC(=N)c2ccccn2)ccc1-c1ccc(-c2ccncc2)o1 [Compound 1f]
[1]; [5]
  IC50: 2700 ± 200 nM
[2]
  IC50: 2600 ± 100 nM
J774 macrophages; [6]
  IC50: 22 µM

## CC(C)Oc1cc(NC(=N)c2ccccn2)ccc1-c1ccc(-c2ccccc2)s1 [Compound 1o]
[1]; [5]
  IC50: 2300 ± 300 nM
[2]
  IC50: 2200 ± 500 nM
J774 macrophages; [6]
  IC50: 6.9 ± 0.4 µM

## COc1ccc(-c2ccc(-c3ccc(NC(=N)c4ccccn4)cc3OC(C)C)o2)cc1 [Compound 1g]
[1]; [5]
  IC50: 820 ± 310 nM
[2]
  IC50: 900 ± 150 nM
J774 macrophages; [6]
  IC50: 6.7 ± 0.9 µM

## CC(C)Oc1cc(NC(=N)c2ccccn2)ccc1-c1cnc(-c2ccccc2)o1 [Compound 3]
[1]; [5]
  IC50: 590 ± 60 nM
[2]
  IC50: 1000 nM
J774 macrophages; [6]
  IC50: 24 µM

## CC[C@@H]([C@H](C)O)n1ncn(-c2ccc(N3CCN(c4ccc(OC[C@@H]5CO[C@@](Cn6cncn6)(c6ccc(F)cc6F)C5)cc4)CC3)cc2)c1=O [posaconazole, reference compound]
[1]; Peritoneal macrophage, infected murine peritoneal macrophages, 72 h, low solubility at higher concentrations, read-out: IC50 against intracellular L. amazonensis
  IC50: > 10000 nM

## COc1cc([C@@H]2c3cc4c(cc3[C@H](O)[C@H]3COC(=O)[C@H]23)OCO4)cc(OC)c1OC [podophyllotoxin, reference compound]
J774 macrophages; J774, read-out: IC50 J774 macrophages
  IC50: 0.024 ± 0.005 µM

## COc1cc(NC(=N)c2ccccn2)ccc1-c1ccc(-c2ccccc2)o1 [Compound 1m]
[1]; [5]
  IC50: 3700 ± 1300 nM
[2]
  IC50: 1400 ± 300 nM
J774 macrophages; [6]
  IC50: 9 ± 2 µM

## CC(C)Oc1cc(NC(=N)c2ccccn2)ccc1-c1ccc(-c2cncnc2)o1 [Compound 1c]
[1]; [5]
  IC50: 1100 ± 300 nM
[2]
  IC50: 2100 ± 400 nM
J774 macrophages; [6]
  IC50: > 20 µM

## N=C(Nc1ccc(-c2ccc(-c3ccccc3)o2)c(C(F)(F)F)c1)c1ccccn1 [Compound 1n]
[1]; [5]
  IC50: > 10000 nM
[2]
  IC50: 6100 ± 1400 nM
J774 macrophages; [6]
  IC50: > 20 µM

## CC(C)Oc1cc(NC(=N)c2ccccn2)ccc1-c1ccc(-c2ccco2)o1.Cl [Compound 1d]
[1]; [5]
  IC50: 250 ± 10 nM
[2]
  IC50: 340 ± 50 nM
J774 macrophages
  selectivity index for intracellular Leishmania compared to J774 murine macrophages: ≥ 25
J774 macrophages; [6]
  IC50: 8.5 ± 0.8 µM
Healthy BALB/c mice
  in vivo tolerability: well tolerated
L. donovani LV82
  suppression (inhibition) of liver parasitemia: 13%

## CCOc1cc(NC(=N)c2ccccn2)ccc1-c1ccc(-c2ccccc2)o1 [Compound 1l]
[1]; [5]
  IC50: 980 ± 70 nM
[2]
  IC50: 850 ± 170 nM
J774 macrophages; [6]
  IC50: 6.6 ± 0.6 µM

## CS(=O)(=O)O.N=C(Nc1ccc(-c2ccc(-c3ccccc3)o2)c(OC2CCCC2)c1)c1ccccn1 [Compound 1k]
[1]; [5]
  IC50: 140 ± 10 nM
[2]
  IC50: 170 ± 40 nM
J774 macrophages
  selectivity index for intracellular Leishmania compared to J774 murine macrophages: ≥ 25
J774 macrophages; [6]
  IC50: 13 µM
Healthy BALB/c mice
  in vivo tolerability: well tolerated
L. donovani LV82
  suppression (inhibition) of liver parasitemia: 20%

## CC(C)Oc1cc(NC(=N)c2ccccn2)ccc1-c1ccco1 [Compound 1a]
[1]; [5]
  IC50: 2100 ± 200 nM
[2]
  IC50: 2400 ± 300 nM
J774 macrophages; [6]
  IC50: 22 µM

## CC(C)Oc1cc(NC(=N)c2ccccn2)ccc1-c1ccc(-c2cccnc2)o1 [Compound 1e]
[1]; [5]
  IC50: 900 ± 230 nM
[2]
  IC50: 1200 ± 100 nM
J774 macrophages; [6]
  IC50: > 50 µM

## CC(C)Oc1cc(NC(=N)c2ccccn2)ccc1-c1ccc(-c2ccccc2)o1.CS(=O)(=O)O [Compound 1b, N-(3-isopropoxy-4-(5-phenylfuran-2-yl)phenyl)picolinimidamide methanesulfonate]
[1]; [5]
  IC50: 130 ± 30 nM
[2]
  IC50: 310 ± 10 nM
J774 macrophages
  selectivity index for intracellular Leishmania compared to J774 murine macrophages: ≥ 25
J774 macrophages; [6]
  IC50: 13 µM
Healthy BALB/c mice
  in vivo tolerability: well tolerated
L. donovani LV82
  suppression (inhibition) of liver parasitemia: 37%
L. donovani LV82; p.o. 50 mg/kg once daily for 5 days
  inhibition of liver parasitemia: 37%
L. donovani LV82; p.o. 100 mg/kg/day for five days, vs control
  inhibition of liver parasitemia: 46%
[3]; liver and spleen, read-out: concentration in the liver and spleen at 24 h post dose
  concentration at 24 h: 600 to 700 nM
[3]; liver, read-out: liver concentration C1h
  concentration at 1 h: 12.6 µM
[3]; plasma, read-out: plasma concentration C1h
  concentration at 1 h: 1.9 µM
[3]; plasma, read-out: plasma concentration at 24 h post dose
  concentration at 24 h: 140 nM
[3]; spleen, read-out: spleen concentration C1h
  concentration at 1 h: 4.7 µM
[4]
  IC50: 260 ± 50 nM

## COc1ccc(-n2cc(-c3ccc(NC(=N)c4ccccn4)cc3OC(C)C)nn2)cc1 [Compound 2]
[1]; [5]
  IC50: 2900 ± 100 nM
[2]
  IC50: 1600 ± 200 nM
J774 macrophages; [6]
  IC50: 16 µM

## COc1ccccc1-c1ccc(-c2ccc(NC(=N)c3ccccn3)cc2OC(C)C)o1 [Compound 1i]
[1]; [5]
  IC50: 1400 ± 200 nM
[2]
  IC50: 1300 ± 100 nM
J774 macrophages; [6]
  IC50: 5.3 ± 1 µM

## CC(C)Oc1cc(NC(=N)c2ccccn2)ccc1-c1ccc(-c2ccc(F)cc2)o1 [Compound 1h]
[1]; [5]
  IC50: 920 ± 190 nM
[2]
  IC50: 1100 ± 100 nM
J774 macrophages; [6]
  IC50: 8 ± 0.1 µM

## CCCCCCCCCCCCCCCCOP(=O)([O-])OCC[N+](C)(C)C [miltefosine, reference compound]
L. donovani LV82; i.p. 10 mg/kg/day for five days, 10 mg/kg/day
  inhibition of liver parasitemia: > 90%
L. donovani LV82; i.p. 10 mg/kg/day for five days, listed as Milt, 10 mg/kg/day
  inhibition of liver parasitemia: 99%
L. donovani LV82; i.p. 10 mg/kg/day for five days, listed as Miltefosine, 10 mg/kg/day
  inhibition of liver parasitemia: 98%
L. donovani LV82; p.o. 10 mg/kg/day for five days, 10 mg/kg/day
  inhibition of liver parasitemia: > 90%
L. donovani LV82; p.o. 10 mg/kg/day for five days, listed as Milt, 10 mg/kg/day
  inhibition of liver parasitemia: 96%

## C[C@@H]1[C@H](O)[C@@H](C)/C=C/C=C/C=C/C=C/C=C/C=C/C=C/[C@H](O[C@@H]2O[C@H](C)[C@@H](O)[C@H](N)[C@@H]2O)C[C@@H]2O[C@](O)(C[C@@H](O)C[C@@H](O)[C@H](O)CC[C@@H](O)C[C@@H](O)CC(=O)O[C@H]1C)C[C@H](O)[C@H]2C(=O)O [amphotericin B, reference compound]
[1]; [5]
  IC50: 120 ± 10 nM
[2]
  IC50: 40 ± 3 nM

## CC(C)Oc1cc(-c2ccc(-c3ccccc3)o2)ccc1NC(=N)c1ccccn1 [Compound 1j]
[1]; [5]
  IC50: 1600 ± 300 nM
[2]
  IC50: 1400 ± 300 nM
J774 macrophages; [6]
  IC50: 13 µM

From paper PMC4841789, “Synthesis and pharmacological evaluation of mono-arylimidamides as antileishmanial agents” (Bioorganic & Medicinal Chemistry Letters, 2016)
